Measurements as given in patent publication US10206400B2, “Insecticidal compounds based on isoxazoline derivatives” (Syngenta Crop Protection LLC, priority 2009, dated 2019).

Legend:
Assay type in all cases: in vivo
[1] = tested on: Spodoptera littoralis; test: Spodoptera littoralis (Egyptian cotton leafworm) leaf disc spray test; conditions: foliar, 72 h, 200 ppm spray on cotton leaf discs, L1 larvae, mortality, feeding behavior, growth regulation 3 days after treatment
Source text: Cotton leaf discs were placed on agar in a 24-well microtiter plate and sprayed with test solutions at an application rate of 200 ppm. After drying, the leaf discs were infested with 5 L1 larvae. The samples were checked for mortality, feeding behavior, and growth regulation 3 days after treatment (DAT).

[2] = tested on: Heliothis virescens; test: Heliothis virescens (tobacco budworm) egg/artificial diet test; conditions: 96 h, 200 ppm (concentration in well 18 ppm), eggs 0-24 h old on artificial diet, 4 days, egg mortality, larval mortality, growth regulation
Method: Eggs (0-24 h old) were placed in 24-well microtiter plate on artificial diet and treated with test solutions at an application rate of 200 ppm (concentration in well 18 ppm) by pipetting. After an incubation period of 4 days, samples were checked for egg mortality, larval mortality, and growth regulation.

[3] = tested on: Plutella xylostella; test: Plutella xylostella (diamond back moth) artificial diet test; conditions: 144 h, 200 ppm (concentration in well 18 ppm), L2 larvae, 6 days, larval mortality, growth regulation
Method: (§1) 24-well microtiter plate (MTP) with artificial diet was treated with test solutions at an application rate of 200 ppm (concentration in well 18 ppm) by pipetting. After drying, the MTP's were infested with L2 larvae (7-12 per well). After an incubation period of 6 days, samples were checked for larval mortality and growth regulation.

[4] = tested on: Diabrotica balteata; test: Diabrotica balteata (corn root worm) artificial diet test; conditions: 120 h, 200 ppm (concentration in well 18 ppm), L2 larvae, 5 days, larval mortality, growth regulation
Method: as §1, with “A 24-well” for “24-well”, “(6-10” for “(7-12”, “5” for “6”

[5] = tested on: Thrips tabaci; test: Thrips tabaci (onion thrips) leaf disc spray test; conditions: foliar, 168 h, 200 ppm spray on sunflower leaf discs, mixed ages, 7 days, mortality
Method: [The procedure below names another target; the source lists this target under the same test.] Sunflower leaf discs were placed on agar in a 24-well microtiter plate and sprayed with test solutions at an application rate of 200 ppm. After drying, the leaf discs were infested with an […] population of mixed ages. After an incubation period of 7 days, samples were checked for mortality.

[6] = tested on: Myzus persicae; test: Myzus persicae (green peach aphid), systemic test; conditions: 144 h, roots of infested pea seedlings in test solution, 6 days, mortality, special effects on the plant
Source text: Myzus persicae (Green peach aphid), systemic test: Roots of pea seedlings, infested with an aphid population of mixed ages, are placed directly in the test solutions at an application rate of 12.5 ppm. 6 days after introduction, samples are checked for mortality and special effects on the plant. The following compounds gave at least 80% control of Myzus persicae: A3, B2, B3, B5, B6, B7, B8, B11, B12, C1, C2, C3,C4, C5, C6, C7, D1, E1, E2, G1, G3, G5, G6, H1, H5, H6, H9, H10, H11, H12, H13, H14, H18, H19, H20, H24, H25, and H26.

[7] = tested on: Tetranychus urticae; test: Tetranychus urticae (two-spotted spider mite) leaf disc spray test; conditions: foliar, 192 h, 200 ppm spray on bean leaf discs, mixed ages, 8 days, egg, larval and adult mortality
Source text: Bean leaf discs on agar in 24-well microtiter plates were sprayed with test solutions at an application rate of 200 ppm. After drying, the leaf discs are infested with mite populations of mixed ages. 8 days later, discs are checked for egg mortality, larval mortality, and adult mortality.

Cc1cc(C2=NOC(c3cc(Cl)cc(Cl)c3)(C(F)(F)F)C2)ccc1C(=O)NC1CSSC1 (stereo not shown) [Compound A1, 4-[5-(3,5-Dichloro-phenyl)-5-trifluoromethyl-4,5-dihydro-isoxazol-3-yl]-N-[1,2]dithiolan-4-yl-2-methyl-benzamide]
≥ 80%: pest or weed control at 200 ppm [1] | pest or weed control at 200 ppm [2] | pest or weed control at 200 ppm [3] | pest or weed control at 200 ppm [4] | pest or weed control at 200 ppm [5]

CCN1CC(NC(=O)c2ccc(C3=NOC(c4cc(Cl)cc(Cl)c4)(C(F)(F)F)C3)cc2C)CO1 (stereo not shown) [Compound A3, 4-[5-(3,5-Dichloro-phenyl)-5-trifluoromethyl-4,5-dihydroisoxazol-3-yl]-N-(2-ethyl-isoxazolidin-4-yl)-2-methyl-benzamide]
≥ 80%: pest or weed control at 200 ppm [1] | pest or weed control at 200 ppm [2] | pest or weed control at 200 ppm [3] | pest or weed control at 200 ppm [4] | pest or weed control at 12.5 ppm [6] | pest or weed control at 200 ppm [5] | pest or weed control at 200 ppm [7]

Cc1cc(C2=NOC(c3cc(Cl)cc(Cl)c3)(C(F)(F)F)C2)ccc1C(=O)N[C@@H]1CONC1=O (stereo partly drawn) [Compound B1, 4-[5-(3,5-Dichloro-phenyl)-5-trifluoromethyl-4,5-dihydro-isoxazol-3-yl]-2-methyl-N-((R)-3-oxo-isoxazolidin-4-yl)-benzamide]
≥ 80%: pest or weed control at 200 ppm [1] | pest or weed control at 200 ppm [2] | pest or weed control at 200 ppm [3] | pest or weed control at 200 ppm [7]

Cc1cc(C2=NOC(c3cc(Cl)cc(Cl)c3)(C(F)(F)F)C2)ccc1C(=O)N[C@@H]1CON(C)C1=O (stereo partly drawn) [Compound B2, 4-[5-(3,5-Dichloro-phenyl)-5-trifluoromethyl-4,5-dihydro-isoxazol-3-yl]-2-methyl-N-((R)-2-methyl-3-oxo-isoxazolidin-4-yl)-benzamide]
≥ 80%: pest or weed control at 200 ppm [1] | pest or weed control at 200 ppm [2] | pest or weed control at 200 ppm [3] | pest or weed control at 200 ppm [4] | pest or weed control at 12.5 ppm [6] | pest or weed control at 200 ppm [5] | pest or weed control at 200 ppm [7]

Cc1cc(C2=NOC(c3cc(Cl)cc(Cl)c3)(C(F)(F)F)C2)ccc1C(=O)N[C@@H]1CON(Cc2ccccc2)C1=O (stereo partly drawn) [Compound B4, 4-[5-(3,5-Dichloro-phenyl)-5-trifluoromethyl-4,5-dihydro-isoxazol-3-yl]-2-methyl-N-((R)-2-benzyl-3-oxo-isoxazolidin-4-yl)-benzamide]
≥ 80%: pest or weed control at 200 ppm [1] | pest or weed control at 200 ppm [2] | pest or weed control at 200 ppm [3] | pest or weed control at 200 ppm [4] | pest or weed control at 200 ppm [5] | pest or weed control at 200 ppm [7]

Cc1cc(C2=NOC(c3cc(Cl)cc(Cl)c3)(C(F)(F)F)C2)ccc1C(=O)N[C@@H]1CON(CCO)C1=O (stereo partly drawn) [Compound B9, 4-[5-(3,5-Dichloro-phenyl)-5-trifluoromethyl-4,5-dihydro-isoxazol-3-yl]-2-methyl-N-((R)-2-(2-hydroxy-ethyl)-3-oxo-isoxazolidin-4-yl)-benzamide]
≥ 80%: pest or weed control at 200 ppm [1] | pest or weed control at 200 ppm [2] | pest or weed control at 200 ppm [3] | pest or weed control at 200 ppm [4] | pest or weed control at 200 ppm [5] | pest or weed control at 200 ppm [7]

Cc1cc(C2=NOC(c3cc(Cl)cc(Cl)c3)(C(F)(F)F)C2)ccc1C(=O)N[C@@H]1CON(C2CSC2)C1=O (stereo partly drawn) [Compound B10, 4-[5-(3,5-Dichloro-phenyl)-5-trifluoromethyl-4,5-dihydro-isoxazol-3-yl]-2-methyl-N-((R)-2-(thietan-3-yl)-3-oxo-isoxazolidin-4-yl)-benzamide]
≥ 80%: pest or weed control at 200 ppm [1] | pest or weed control at 200 ppm [2] | pest or weed control at 200 ppm [3] | pest or weed control at 200 ppm [4] | pest or weed control at 200 ppm [5] | pest or weed control at 200 ppm [7]

Cc1cc(C2=NOC(c3cc(Cl)cc(Cl)c3)(C(F)(F)F)C2)ccc1C(=O)N[C@@H]1CON(C2CCC2)C1=O (stereo partly drawn) [Compound B11, 4-[5-(3,5-Dichloro-phenyl)-5-trifluoromethyl-4,5-dihydro-isoxazol-3-yl]-2-methyl-N-((R)-2-(cyclobutyl)-3-oxo-isoxazolidin-4-yl)-benzamide]
≥ 80%: pest or weed control at 200 ppm [1] | pest or weed control at 200 ppm [3] | pest or weed control at 200 ppm [4] | pest or weed control at 12.5 ppm [6] | pest or weed control at 200 ppm [5] | pest or weed control at 200 ppm [7]

Cc1cc(C2=NOC(c3cc(Cl)cc(Cl)c3)(C(F)(F)F)C2)ccc1C(=O)NCC1CCN(Cc2ccccc2)O1 (stereo not shown) [Compound F1, N-(2-Benzyl-isoxazolidin-5-ylmethyl)-4-[5-(3,5-dichloro-phenyl)-5-trifluoromethyl-4,5-dihydro-isoxazol-3-yl]-2-methyl-benzamide]
≥ 80%: pest or weed control at 200 ppm [1] | pest or weed control at 200 ppm [2] | pest or weed control at 200 ppm [3] | pest or weed control at 200 ppm [4] | pest or weed control at 200 ppm [5] | pest or weed control at 200 ppm [7]

Cc1cc(C2=NOC(c3cc(Cl)cc(Cl)c3)(C(F)(F)F)C2)ccc1C(=O)NCC1CCN(C)O1 (stereo not shown) [Compound F2, N-(2-methyl-isoxazolidin-5-ylmethyl)-4-[5-(3,5-dichloro-phenyl)-5-trifluoromethyl-4,5-dihydro-isoxazol-3-yl]-2-methyl-benzamide]
≥ 80%: pest or weed control at 200 ppm [1] | pest or weed control at 200 ppm [2] | pest or weed control at 200 ppm [3] | pest or weed control at 200 ppm [4] | pest or weed control at 200 ppm [5] | pest or weed control at 200 ppm [7]

CCN1OC(CNC(=O)c2ccc(C3=NOC(c4cc(Cl)cc(Cl)c4)(C(F)(F)F)C3)cc2C)CC1=O (stereo not shown) [Compound F3, 4-[5-(3,5-Dichloro-phenyl)-5-trifluoromethyl-4,5-dihydro-isoxazol-3-yl]-2-methyl-N-[3-oxo-2-ethyl-isoxazolidin-5-ylmethyl]-benzamide]
≥ 80%: pest or weed control at 200 ppm [1] | pest or weed control at 200 ppm [2] | pest or weed control at 200 ppm [3] | pest or weed control at 200 ppm [4] | pest or weed control at 200 ppm [5] | pest or weed control at 200 ppm [7]

Cc1cc(C2=NOC(c3cc(Cl)cc(Cl)c3)(C(F)(F)F)C2)ccc1C(=O)NCC1CC(=O)N(CC(F)(F)F)O1 (stereo not shown) [Compound F4, 4-[5-(3,5-Dichloro-phenyl)-5-trifluoromethyl-4,5-dihydro-isoxazol-3-yl]-2-methyl-N-[3-oxo-2-(1,1,1-trifluoroethyl)-isoxazolidin-5-ylmethyl]-benzamide]
≥ 80%: pest or weed control at 200 ppm [1] | pest or weed control at 200 ppm [2] | pest or weed control at 200 ppm [3] | pest or weed control at 200 ppm [4] | pest or weed control at 200 ppm [5] | pest or weed control at 200 ppm [7]

Cc1cc(C2=NOC(c3cc(Cl)cc(Cl)c3)(C(F)(F)F)C2)ccc1C(=O)NCC1CO[S+]([O-])O1 (stereo not shown) [Compound F5, 4-[5-(3,5-dichlorophenyl)-5-(trifluoromethyl)-4H-isoxazol-3-yl]-2-methyl-N-[(2-oxido-1,3,2-dioxathiolan-2-ium-4-yl)methyl]benzamide]
≥ 80%: pest or weed control at 200 ppm [1] | pest or weed control at 200 ppm [2] | pest or weed control at 200 ppm [3] | pest or weed control at 200 ppm [4] | pest or weed control at 200 ppm [5] | pest or weed control at 200 ppm [7]

COc1ccc(N2CCC(CNC(=O)c3ccc(C4=NOC(c5cc(Cl)cc(Cl)c5)(C(F)(F)F)C4)cc3C)S2(=O)=O)cc1 (stereo not shown) [Compound F6, 4-[5-(3,5-Dichloro-phenyl)-5-trifluoromethyl-4,5-dihydro-isoxazol-3-yl]-N-[2-(4-methoxy-phenyl)-1,1-dioxo-1 lambda*6*-isothiazolidin-5-ylmethyl]-2-methyl-benzamide]
≥ 80%: pest or weed control at 200 ppm [1] | pest or weed control at 200 ppm [2] | pest or weed control at 200 ppm [3] | pest or weed control at 200 ppm [4] | pest or weed control at 200 ppm [7]
